Experimental data from patent US6953813B1, “2-Aminotetralin derivatives for the therapy of glaucoma” (Chiesi Farmaceutici S.p.A., priority 1999, dated 2005).

Assay: pKa
Type: physicochemical
Source text: The higher apparent partition coefficient would be more favorable for ophthalmic absorption. However, an acid aqueous solution should be used as a vehicle for eyedrop administration due to the better chemical stability of CHF 1035 in such pH range. The theoretical log Papp of the corresponding not esterified derivative turned out to be −0.9 at pH 7.4.

For `CNC1CCc2c(ccc(OC(=O)C(C)C)c2OC(=O)C(C)C)C1` (racemic) [CHF 1035, (±)-(R,S)-5,6-diisobutyryloxy-2-methylaminotetralin], the pKa was 9.4.
